The source of these data is ChEMBL document CHEMBL1136491, “1-aryl-6,7-methylenedioxy-3H-quinazolin-4-ones as anticonvulsant agents” (Bioorg Med Chem Lett, 2003).

The target in assay [1] is Glutamate receptor ionotropic, AMPA (Rattus norvegicus, UniProt P19490+P19491+P19492+P19493). The experiment in a line: Ability to displace [3H]CP-526427 (3 nM) from binding site of the Ionotropic glutamate receptor AMPA in rat forebrain membrane. The class given is cell membranes.
Assay [2] relates to Mus musculus. The experiment in a line: Anticonvulsant activity against audiogenic tonus seizure 30 min after intraperitoneal administration (3.3-200 umol/kg) in DBA/2 mice. It is filed as functional. As to conditions: ip, 0.5 h.
The subject of assay [3] is Mus musculus. The experiment in a line: Anticonvulsant activity against audiogenic clonus seizure 30 min after intraperitoneal administration (3.3-200 umol/kg) in DBA/2 mice. It is filed as functional. As to conditions: ip, 0.5 h.
Assay [4] concerns Mus musculus. The assay is described as follows: Anticonvulsant activity against audiogenic clonus seizure 15 min after intraperitoneal administration (3.3-200 umol/kg) in DBA/2 mice. As to conditions: ip, 0.25 h. It is filed as functional.

With `Oc1nc(-c2ccc(F)cc2)nc2cc3c(cc12)OCO3`, the IC50 (as a rule, the point on the concentration scale where inhibition reaches its midpoint) in assay [1] is more than 100 µM. Moreover, the ED50 (in general, the midpoint of the dose-response relation) stood at 27.8 µmol/kg in assay [2] and 32.7 µmol/kg in assay [3].
The corresponding values for `Oc1nc(-c2ccc(Cl)cc2)nc2cc3c(cc12)OCO3` are more than 100 µM, 21.6 µmol/kg and 36.5 µmol/kg.
On to `Oc1nc(-c2ccc(Br)cc2)nc2cc3c(cc12)OCO3`, for which the ED50 in assay [2] is 36.6 µmol/kg; in assay [3] it was 68.3 µmol/kg.
For `Nc1ccc(-c2nc(O)c3cc4c(cc3n2)OCO4)cc1`, the IC50 in assay [1] was more than 100 µM. In addition, the ED50 in assay [2] is 17.7 µmol/kg; in assay [3], 27.8 µmol/kg.
In the case of `Nc1ccc(-c2nc(S)c3cc4c(cc3n2)OCO4)cc1`, the results for the ED50 in assay [2], in assay [4] and in assay [3] were 17.9 µmol/kg, 79.4 µmol/kg and 37.8 µmol/kg, respectively.
For `Oc1nc(-c2ccccc2)nc2cc3c(cc12)OCO3`, the IC50 in assay [1] is more than 100 µM. Besides, the ED50 was 46.1 µmol/kg in assay [2] and 59.5 µmol/kg in assay [3].
Regarding `O=C1Cc2cc3c(cc2C(c2ccc(F)cc2)=NN1)OCO3`, the ED50 came out at 63.8 µmol/kg in assay [2] and 89.8 µmol/kg in assay [3].
With `Nc1ccc(-c2nnc(O)c3cc4c(cc23)OCO4)cc1`, the IC50 in assay [1] was more than 100 µM.
